Reference: US9790218B2, “Small molecule activators of calcium-activated chloride channels and methods of use” (The Regents of the University of California, priority 2011, dated 2017)

Columns and labels:
[1] = tested on: non-CF human tracheal gland (HTG) serous cells; assay: Short-circuit current in human tracheal gland (HTG) serous cells; type: cell-based; conditions: Eact 10 μM, UTP 100 μM
Method: FIG. 5A-B. Airway epithelial chloride secretion. FIG. 5A. Short-circuit current in CF HBE cells. Eact and UTP (100 μM) were added in control (left) and IL-4 (10 ng/ml, 24 h, middle) treated CF HBE cells. (right) Summary of Eact-induced, T16Ainh-A01-sensitive peak current (mean±S.E., n=6-8, * P<0.05). ENaC was inhibited by 10 μM amiloride. FIG. 5B. Eact (10 μM) and UTP (100 μM) induced CaCC Cl^− current measured in primary cultures of non-CF human tracheal gland (HTG) serous cells. (left and gmiddle) TMEM16A, CFTR and ENaC were inhibited by pretreatment with T16Ainh-A01, CFTRinh-172 and amiloride, respectively. Inset: TMEM16A immunoblot in whole cell homogenates of CF HBE and HTG cells. (right) Summary of UTP and Eact-induced peak current in the presence and absence of T16Ainh-A01 (mean±S.E., n=3, * P<0.05). […]
Snapwell inserts containing TMEM16A-expressing FRT, HBE, CF HBE or HTG cells were mounted in Ussing chambers (Physiologic Instruments, San Diego, Calif.). […] Apical membrane current (for FRT cells) and short-circuit current were measured using an EVC4000 Multi-Channel V/I Clamp (World Precision Instruments, Sarasota, Fla.) and recorded using PowerLab/8sp (AD Instruments, Castle Hill, Australia). […]

[2] = tested on: CF human bronchial epithelial (CF HBE) cells; assay: Short-circuit current in CF HBE cells; type: cell-based; conditions: no IL-4; UTP 100 μM
Method: FIG. 5A-B. Airway epithelial chloride secretion. FIG. 5A. Short-circuit current in CF HBE cells. Eact and UTP (100 μM) were added in control (left) and IL-4 (10 ng/ml, 24 h, middle) treated CF HBE cells. (right) Summary of Eact-induced, T16Ainh-A01-sensitive peak current (mean±S.E., n=6-8, * P<0.05). ENaC was inhibited by 10 μM amiloride. FIG. 5B. Eact (10 μM) and UTP (100 μM) induced CaCC Cl^− current measured in primary cultures of non-CF human tracheal gland (HTG) serous cells. (left and gmiddle) TMEM16A, CFTR and ENaC were inhibited by pretreatment with T16Ainh-A01, CFTRinh-172 and amiloride, respectively. Inset: TMEM16A immunoblot in whole cell homogenates of CF HBE and HTG cells. (right) Summary of UTP and Eact-induced peak current in the presence and absence of T16Ainh-A01 (mean±S.E., n=3, * P<0.05).
Tracheal and bronchial tissues were obtained from non-CF and CF patients following lung transplantation or from postmortem examinations performed within 24 h after death. […]
Snapwell inserts containing TMEM16A-expressing FRT, HBE, CF HBE or HTG cells were mounted in Ussing chambers (Physiologic Instruments, San Diego, Calif.). […] Apical membrane current (for FRT cells) and short-circuit current were measured using an EVC4000 Multi-Channel V/I Clamp (World Precision Instruments, Sarasota, Fla.) and recorded using PowerLab/8sp (AD Instruments, Castle Hill, Australia).

[3] = tested on: mouse ileal smooth muscle; assay: Intestinal smooth muscle contraction, ex vivo mouse ileal segments; conditions: carbachol 1 μM
Method: FIG. 8A-C. Intestinal smooth muscle contraction. FIG. 8A. Representative traces from mouse ileal segments showing effects of T16Ainh-A01 (10 μM), carbachol (CCh, 1 μM) and Eact (10 μM). FIG. 8B. Effect of CCh (1 μM) and Eact (10 μM) following atropine (1 μM). FIG. 8C. Summary of contraction frequency (left), and resting and maximum tone (right) (mean±S.E., n=4-7, * P<0.05).
Wild type CD1 mice (age 8-10 weeks) were killed by avertin overdose (200 mg/kg). The ileum removed and washed with ice-cold HCO3^−-buffered solution. The ends of the ileal segments were tied with silk thread and connected to a force transducer. Beal segments were equilibrated for 60 min with a resting force of ˜1 mN, with changes of the bathing solution every 15 min. Tension was monitored continuously with a fixed-range precision force transducer (TSD, 125 C; Biopac, Goleta, Calif.) connected to a differential amplifier (DA 100B; Biopac). Data were recorded using MP100, Biopac digital acquisition system and analyzed using Acknowledge 3.5.7 software.
TMEM16A in expressed in the interstitial cells of Cajal, the pacemaker cells that control smooth muscle contraction dynamics in stomach and intestine (Huang et al., supra; Gomez-Pinilla et al. (2009) Am. J. Physiol. Gastrointest. Liver Physiol. 296, G1370-1381). The effect of Eact on mouse ileal smooth muscle contraction was investigated using an ex vivo intestinal preparation. […] Without wishing to be bound by theory, the constitutive TMEM16A activity in this ex vivo preparation could obscure Eact activity. To reveal Eact effects, atropine was first added to inhibit basal contractions. […] FIG. 8C summarizes data on contraction frequency, resting tone and maximal tone.

[4] = tested on: human bronchi submucosal glands; assay: Airway submucosal gland fluid secretion in human bronchi; conditions: serosal application; 300 nM carbachol, 20 μM Eact
Method: FIG. 6A-C. Airway submucosal gland fluid secretion in human bronchi. FIG. 6A. TMEM16A immunohistochemistry in CF (left) and non-CF (right) human bronchi showing apical membrane expression in serous gland epithelial cells (arrows). Scale bar: 20 μm. FIG. 6B. Mucous (fluid) secretion in human bronchi. (top) Images of mucus bubbles formed under oil in response to basolateral application of 300 nM carbachol (CCh) and 20 μM Eact. TMEM16A was inhibited by 30 μM T16Ainh-A01. Individual fluid bubbles marked with arrowheads. Scale bar: 0.5 mm. (bottom) CCh and Eact-induced secretion rates. Where indicated, tissues were pre-treated with T16Ainh-A01 (30 μM). Each point is the average of measurements made from 20 glands (mean±S.E. * P<0.05). FIG. 6C. Summary of human gland fluid secretion rates measured at 20 min after addition of 20 μM Eact, and 30 min after application of 300 nM carbachol (CCh) and 10 μM forskolin (20-66 glands from 3 tracheas and 4 bronchus). In CF-bronchi, 6 glands from one donor were stimulated by Eact. […]
Similar staining was found in non-CF and CF human bronchi. Fluid secretion was measured in individual submucosal glands from the increasing size of mucus (fluid) bubbles in which airway fragments were mounted in a 37° C. perfusion chamber and the mucosal solution was covered with oil.

SMILES	Cl^− current in HTG serous cells [1]	Cl^− current in untreated CF bronchial epithelial cells [2]	contraction frequency [3]	resting and maximum tone ([3]; Eact 10 μM, no atropine)	gland fluid secretion rate [4]
O=c1ccn([C@@H]2O[C@H](COP(=O)(O)OP(=O)(O)OP(=O)(O)O)[C@@H](O)[C@H]2O)c(=O)[nH]1 [UTP, reference compound]	increased Cl^− current	produced a large Cl^− current	–	–	–
C[N+](C)(C)CCOC(N)=O [carbachol]	–	–	without change in contraction frequency	increased	significantly increased secretion
